Reference: patent US6153587A, “Conformationally constrained LH-RH analogues, their uses and pharmaceutical compositions containing them” (Laboratoire THERAMEX, priority 1996, dated 2000)

target: T1, LH-RH receptors (Rattus norvegicus, UniProt P30969); assay: Affinity for LH-RH receptors: [125I]-buserelin binding to rat pituitary membranes; conditions: 2 hours at 4° C., 20 to 70 μM [125I]-buserelin, Ki from IC50 by Cheng-Prusoff, read-out: pKi (affinity for LH-RH receptors) (converted)
T1 construct: from tissue; host or cells: rat pituitary membrane fraction (female Sprague Dawley)
T1 sequence (P30969 1-327): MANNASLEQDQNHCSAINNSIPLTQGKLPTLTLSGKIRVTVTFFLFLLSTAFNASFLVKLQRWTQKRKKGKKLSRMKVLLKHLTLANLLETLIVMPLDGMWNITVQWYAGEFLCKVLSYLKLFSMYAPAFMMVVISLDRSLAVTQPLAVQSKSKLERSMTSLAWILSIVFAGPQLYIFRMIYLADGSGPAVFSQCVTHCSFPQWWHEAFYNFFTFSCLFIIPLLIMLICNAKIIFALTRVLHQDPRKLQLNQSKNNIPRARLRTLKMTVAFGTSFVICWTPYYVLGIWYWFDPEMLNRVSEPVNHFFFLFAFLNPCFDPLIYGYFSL
Protocol: This affinity has been determined according to the following method:
Pituitaries from female Sprague Dawley rats were removed and homogenized with a Potter homogenizer in a 25 mM HEPES buffer (pH 7.4) containing 0.32 M sucrose, 100 μg/l PMSF (phenylmethylsulfonylfluoride), 5.6 U/l aprotinin and 10,000 U/l bacitracin. The homogenates were centrifuged at 700 g for 10 minutes and the supernatants were further centrifuged at 12,500 g for 30 minutes. The pellets were homogenized and centrifuged as described above, in the same buffer but without sucrose.
All homogenization, centrifugation and subsequent incubation steps were carried out at 4° C.
The assay was terminated by filtration under suction (Brandel 96-well harvester) through Whatman GF/B glass fiber filters. […] Each compound was tested in at least 4 experiments.
Specific binding data were analysed according to Scatchard's method.
For each test compound, the inhibitory constant (Ki) was calculated from its IC50 according to the Cheng and Prussofs equation: Ki=IC50 /(1+[radioligand]/Kd). Ki was then transformed into pKi (=-log Ki) for final expression of affinity scales.

| Ki | SMILES |
| --- | --- |
| 0.309 nM | CC(=O)N[C@H](Cc1ccc2ccccc2c1)C(=O)N[C@H](Cc1ccc(Cl)cc1)C(=O)N[C@H](Cc1cccnc1)C(=O)N[C@@H](CO)C(=O)N[C@@H](Cc1ccc(O)cc1)C(=O)N1CCC[C@@]12CCN([C@@H](CC(C)(C)C)C(=O)N[C@@H](CCCCNC(C)C)C(=O)N1CCC[C@H]1C(=O)N[C@H](C)C(N)=O)C2=O [Example 28, AcDNal-DpCtPhe-DPal-Ser-Tyr-SPL-Npg-IprLys-Pro-DAlaNH2] |
| 0.245 nM | CC(=O)N[C@H](Cc1ccc2ccccc2c1)C(=O)N[C@H](Cc1ccc(Cl)cc1)C(=O)N[C@H](Cc1cccnc1)C(=O)N[C@@H](CO)C(=O)N[C@@H](Cc1ccc(O)cc1)C(=O)N1CCC[C@@]12CCN([C@@H](CC(C)(C)C)C(=O)N[C@@H](CCCNC(=N)N)C(=O)N1CCC[C@H]1C(=O)N[C@H](C)C(N)=O)C2=O [Example 25, AcDNal-DpClPhe-DPal-Ser-Tyr-SPL-Npg-Arg-Pro-DAlaNH2] |
| 0.363 nM | CC(=O)N[C@H](Cc1ccc2ccccc2c1)C(=O)N[C@H](Cc1ccc(Cl)cc1)C(=O)N[C@H](Cc1cccnc1)C(=O)N[C@@H](CO)C(=O)N[C@@H](CCCCNC(=O)c1cccnc1)C(=O)N1CCC[C@@]12CCN([C@@H](CC(C)(C)C)C(=O)N[C@@H](CCCCNC(C)C)C(=O)N1CCC[C@H]1C(=O)N[C@H](C)C(N)=O)C2=O [Example 29, AcDNal-DpClPhe-DPal-Ser-NicLys-SPL-Npg-IprLys-Pro-DAlaNH2] |
| 0.0977 nM | CC(=O)N[C@H](Cc1ccc2ccccc2c1)C(=O)N[C@H](Cc1ccc(Cl)cc1)C(=O)N[C@H](Cc1cccnc1)C(=O)N[C@@H](CO)C(=O)N[C@@H](CCCCNC(C)C)C(=O)N1CCC[C@@]12CCN([C@@H](CC(C)(C)C)C(=O)N[C@@H](CCCNC(=N)N)C(=O)N1CCC[C@H]1C(=O)N[C@H](C)C(N)=O)C2=O [Example 27, AcDNal-DpCtPhe-DPal-Ser-IprLys-SPL-Npg-Arg-Pro-DAlaNH2] |
| 0.251 nM | CC(=O)N[C@H](Cc1ccc2ccccc2c1)C(=O)N[C@H](Cc1ccc(Cl)cc1)C(=O)N[C@H](Cc1csc2ccccc12)C(=O)N[C@@H](CO)C(=O)N[C@@H](Cc1ccc(O)cc1)C(=O)N1CCC[C@@]12CCN([C@@H](CC(C)C)C(=O)N[C@@H](CCCNC(=N)N)C(=O)N1CCC[C@H]1C(=O)N[C@H](C)C(N)=O)C2=O [Example 24, AcDNal-DpClPhe-DBal-Ser-Tyr-SPL-Leu-Arg-Pr-DAlaNH2] |
| 0.263 nM | CC(=O)N[C@H](Cc1ccc2ccccc2c1)C(=O)N[C@H](Cc1ccc(Cl)cc1)C(=O)N[C@H](Cc1cccnc1)C(=O)N[C@@H](CO)C(=O)N[C@@H](CCCCNC(=O)c1cccnc1)C(=O)N1CCC[C@@]12CCN([C@@H](CC(C)(C)C)C(=O)N[C@@H](CCCNC(=N)N)C(=O)N1CCC[C@H]1C(=O)N[C@H](C)C(N)=O)C2=O [Example 26, AcDNal-DpClPhe-DPal-Ser-NicLys-SPL-Npg-Arg-Pro-DAlaNH2] |
| 0.155 nM | CC(=O)N[C@H](Cc1ccc2ccccc2c1)C(=O)N[C@H](Cc1ccc(Cl)cc1)C(=O)N[C@H](Cc1cccnc1)C(=O)N[C@@H](CO)C(=O)N[C@@H](Cc1ccc(O)cc1)C(=O)N1CCC[C@@]12CCN([C@@H](CC(C)C)C(=O)N[C@@H](CCCNC(=N)N)C(=O)N1CCC[C@H]1C(=O)N[C@H](C)C(N)=O)C2=O [Example 23, AcDNal-DpClPhe-DPal-Ser-Tyr-SPL-Leu-Arg-Pro-DAlaNH2] |

Second part, the compound before the results:

| SMILES | Ki |
| --- | --- |
| CCNC(=O)[C@@H]1CCCN1C(=O)[C@H](CCCNC(=N)N)NC(=O)[C@@H](N1CC[C@@]2(CCCN2C(=O)[C@H](Cc2ccc(O)cc2)NC(=O)[C@H](CO)NC(=O)[C@H](Cc2c[nH]c3ccccc23)NC(=O)[C@H](Cc2c[nH]cn2)NC(=O)[C@@H]2CCC(=O)N2)C1=O)C(C)(C)C [Example 17, pGlu-His-Trp-Ser-Tyr-SPL-Tle-Arg-Pro-NEt] | 1.78 nM |
| CCNC(=O)[C@@H]1CCCN1C(=O)[C@H](CCCNC(=N)N)NC(=O)[C@H](CC(C)C)N1CC[C@@]2(CCCN2C(=O)[C@H](Cc2ccc(O)cc2)NC(=O)[C@H](CO)NC(=O)[C@H](Cc2c[nH]c3ccccc23)NC(=O)[C@H](Cc2c[nH]cn2)NC(=O)[C@@H]2CCC(=O)N2)C1=O [Example 9, pGlu-His-Trp-Ser-Tyr-SPL-Leu-Arg-Pro-NEt] | 1.15 nM |
| CC(C)C[C@@H](C(=O)N[C@@H](CCCNC(=N)N)C(=O)N1CCC[C@H]1C(=O)N[C@H](C)C(N)=O)N1CC[C@@]2(CCCN2C(=O)[C@H](Cc2ccc(O)cc2)NC(=O)[C@H](CO)NC(=O)[C@H](Cc2c[nH]c3ccccc23)NC(=O)[C@@H](Cc2ccccc2)NC(=O)[C@@H]2CCC(=O)N2)C1=O [Example 21, pGlu-DPhe-Trp-Ser-Tyr-SPL-Leu-Arg-Pro-DAlaNH2] | 9.77 nM |
| CCNC(=O)[C@@H]1CCCN1C(=O)[C@H](CCCNC(=N)N)NC(=O)[C@H](CC(C)C)N1CC[C@@]2(CCCN2C(=O)[C@H](Cc2ccc(O)cc2)NC(=O)[C@H](CO)NC(=O)[C@H](Cc2ccc3ccccc3c2)NC(=O)[C@H](Cc2c[nH]cn2)NC(=O)[C@@H]2CCC(=O)N2)C1=O [Example 12, pGlu-His-Nal-Ser-Tyr-SPL-Leu-Arg-Pro-NEt] | 0.105 nM |
| CCNC(=O)[C@@H]1CCCN1C(=O)[C@H](CCCNC(=N)N)NC(=O)[C@H](CC(C)C)N1CC[C@@]2(CCCN2C(=O)[C@H](Cc2ccc(O)cc2)NC(=O)[C@H](CO)NC(=O)[C@H](Cc2cccc3ccccc23)NC(=O)[C@H](Cc2c[nH]cn2)NC(=O)[C@@H]2CCC(=O)N2)C1=O [Example 11, pGlu-His-INal-Ser-Tyr-SPL-Leu-Arg-Pro-NEt] | 0.427 nM |
| CCNC(=O)[C@@H]1CCCN1C(=O)[C@H](CCCNC(=N)N)NC(=O)[C@H](CC(C)C)N1CC[C@@]2(CCCN2C(=O)[C@H](Cc2ccc(O)cc2)NC(=O)[C@H](CO)NC(=O)[C@H](Cc2c[nH]c3ccccc23)NC(=O)[C@H](Cc2c[nH]cn2)NC(=O)CN(C)C(C)=O)C1=O [Example 10, AcSar-His-Trp-Ser-Tyr-SPL-Leu-Arg-Pro-NEt] | 6.17 nM |
| CCNC(=O)[C@@H]1CCCN1C(=O)[C@H](CCCNC(=N)N)NC(=O)[C@H](CCC(C)C)N1CC[C@@]2(CCCN2C(=O)[C@H](Cc2ccc(O)cc2)NC(=O)[C@H](CO)NC(=O)[C@H](Cc2c[nH]c3ccccc23)NC(=O)[C@H](Cc2c[nH]cn2)NC(=O)[C@@H]2CCC(=O)N2)C1=O [Example 15, pGlu-His-Trp-Ser-Tyr-SPL-Hol-Arg-Pro-NEt] | 2.29 nM |
| CC(=O)N[C@H](Cc1ccc2ccccc2c1)C(=O)N[C@H](Cc1ccc(Cl)cc1)C(=O)N[C@H](Cc1c[nH]c2ccccc12)C(=O)N[C@@H](CO)C(=O)N[C@@H](Cc1ccc(O)cc1)C(=O)N1CCC[C@@]12CCN([C@@H](CC(C)C)C(=O)N[C@@H](CCCNC(=N)N)C(=O)N1CCC[C@H]1C(=O)N[C@H](C)C(N)=O)C2=O [Example 22, AcDNal-DpClPhe-DTrp-Ser-Tyr-SPL-Leu-Arg-Prx)-DAlaNH2] | 0.891 nM |
| CCNC(=O)[C@@H]1CCCN1C(=O)[C@H](CCCNC(=N)N)NC(=O)[C@H](CC(C)(C)C)N1CC[C@@]2(CCCN2C(=O)[C@H](Cc2ccc(O)cc2)NC(=O)[C@H](CO)NC(=O)[C@H](Cc2c[nH]c3ccccc23)NC(=O)[C@H](Cc2c[nH]cn2)NC(=O)[C@@H]2CCC(=O)N2)C1=O [Example 16, pGlu-His-Trp-Ser-Tyr-SPL-Npg-Arg-Pro-NEt] | 0.55 nM |
| CCNC(=O)[C@@H]1CCCN1C(=O)[C@H](CCCNC(=N)N)NC(=O)[C@H](CC(C)C)N1CC[C@@]2(CCCN2C(=O)[C@H](Cc2ccc(O)cc2)NC(=O)[C@H](CO)NC(=O)[C@H](Cc2ccc3ccccc3c2)NC(=O)[C@H](Cc2c[nH]cn2)NC(=O)CN(C)C(C)=O)C1=O [Example 13, AcSar-His-Nal-Ser-Tyr-SPL-Leu-Arg-Pro-NEt] | 1.05 nM |
| CC(C)C[C@@H](C(=O)N[C@@H](CCCNC(=N)N)C(=O)N1CCC[C@H]1C(=O)NCC(N)=O)N1CC[C@@]2(CCCN2C(=O)[C@H](Cc2ccc(O)cc2)NC(=O)[C@H](CO)NC(=O)[C@H](Cc2c[nH]c3ccccc23)NC(=O)[C@@H](Cc2ccccc2)NC(=O)[C@@H]2CCC(=O)N2)C1=O [Example 20, pGlu-DPhe-Trp-Ser-Tyr-SPL-Leu-Arg-Pro-Gly-NH2] | 4.07 nM |
| CCCC[C@@H](C(=O)N[C@@H](CCCNC(=N)N)C(=O)N1CCC[C@H]1C(=O)NCC)N1CC[C@@]2(CCCN2C(=O)[C@H](Cc2ccc(O)cc2)NC(=O)[C@H](CO)NC(=O)[C@H](Cc2c[nH]c3ccccc23)NC(=O)[C@H](Cc2c[nH]cn2)NC(=O)[C@@H]2CCC(=O)N2)C1=O [Example 18, pGlu-His-Trp-Ser-Tyr-SPL-Nle-Arg-Pro-NEt] | 2.04 nM |
